Test results reported in ChEMBL document CHEMBL1201862, “PubChem BioAssay data set” (2004).
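The compound was tested at five concentrations on cells cultured in 96-well plates, with a 48-hour exposure period. Here, GI50 denotes the concentration required for 50% inhibition of growth.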 Activity calls are given as the source filed them. Cut-off read from the data, not from the text of the source: active = GI50 up to about 1.1 µM and inactive = higher.

Experiments:
Assay in all cases: NCI-60 cell line screen, 48 h
MCF7 = test system: MCF7
BT-549 = test system: BT-549
CAKI-1 = test system: CAKI-1
DU-145 = test system: DU-145
U-251 = test system: U-251
PC-3 = test system: PC-3
OVCAR-5 = test system: OVCAR-5
RXF 393 = test system: RXF 393
NCI-H23 = test system: NCI-H23
SK-MEL-5 = test system: SK-MEL-5
SW-620 = test system: SW-620
RPMI-8226 = test system: RPMI-8226
MDA-N = test system: MDA-N
MDA-MB-435 = test system: MDA-MB-435
TK-10 = test system: TK-10
LOX IMVI = test system: LOX IMVI
SN12C = test system: SN12C
UACC-257 = test system: UACC-257
Malme-3M = test system: Malme-3M
SF-539 = test system: SF-539

Measured: GI50

O=C1C[C@H](CCC(=O)OCc2ccccc2)NC(=O)C[C@H](CCC(=O)OCc2ccccc2)NC(=O)C[C@H](CCC(=O)OCc2ccccc2)N1
inactive: MCF7 > 100 µM | BT-549 24.3 µM | CAKI-1 > 100 µM | DU-145 > 100 µM | U-251 5.24 µM | PC-3 > 100 µM | OVCAR-5 > 100 µM | RXF 393 2.36 µM | NCI-H23 52.8 µM | SK-MEL-5 > 100 µM | SW-620 > 100 µM | RPMI-8226 > 100 µM | MDA-N > 100 µM | MDA-MB-435 > 100 µM | TK-10 6.24 µM | LOX IMVI > 100 µM | SN12C > 100 µM | UACC-257 > 100 µM | Malme-3M > 100 µM | SF-539 5.64 µM

CCCCOC(=O)Nc1ccc(S(=O)(=O)Nc2c(Cl)cccc2Cl)cc1
inactive: MCF7 30.8 µM | BT-549 17.7 µM | CAKI-1 25.6 µM | DU-145 38.9 µM | U-251 36.1 µM | PC-3 43.3 µM | OVCAR-5 42 µM | RXF 393 36.9 µM | NCI-H23 40.9 µM | SK-MEL-5 14.1 µM | SW-620 24.4 µM | RPMI-8226 17.1 µM | MDA-N 27.2 µM | MDA-MB-435 26.3 µM | TK-10 36.6 µM | LOX IMVI 30.1 µM | SN12C 34.1 µM | UACC-257 35.6 µM | Malme-3M 26.9 µM | SF-539 29.4 µM

COc1cc2c(cc1C)NC(=O)/C2=C/c1c(Cl)n(-c2ccccc2)c2ccccc12
inactive: MCF7 10.2 µM | BT-549 17.3 µM | CAKI-1 21 µM | DU-145 31.8 µM | U-251 16.1 µM | PC-3 4.41 µM | OVCAR-5 29.5 µM | RXF 393 11.2 µM | NCI-H23 16.4 µM | SK-MEL-5 10.5 µM | SW-620 13.9 µM | RPMI-8226 7.28 µM | MDA-N 15.1 µM | MDA-MB-435 15.1 µM | TK-10 28.9 µM | LOX IMVI 7.33 µM | SN12C 11.2 µM | UACC-257 20.5 µM | Malme-3M 18.4 µM | SF-539 11.1 µM

O=C(O)CC12CC3CC(CC(O)(C3)C1)C2
inactive: MCF7 > 100 µM | BT-549 > 100 µM | CAKI-1 > 100 µM | DU-145 > 100 µM | U-251 > 100 µM | PC-3 > 100 µM | OVCAR-5 > 100 µM | RXF 393 > 100 µM | NCI-H23 > 100 µM | SK-MEL-5 > 100 µM | SW-620 > 100 µM | RPMI-8226 > 100 µM | MDA-N > 100 µM | MDA-MB-435 > 100 µM | TK-10 > 100 µM | LOX IMVI > 100 µM | SN12C > 100 µM | UACC-257 > 100 µM | Malme-3M 34.7 µM | SF-539 > 100 µM
